Laboratory results: patent US20230364254A1, “METHODS FOR TREATING CANCERS WITH ANTIBODY DRUG CONJUGATES (ADC) THAT BIND TO 191P4D12 PROTEINS” (priority 2020, published 2023)

System: locally advanced or metastatic urothelial cancer
Test: Phase 2 single-arm, open-label study of enfortumab vedotin 1.25 mg/kg IV on Days 1, 8, 15 of each 28-day cycle: efficacy (confirmed ORR, DOR, PFS per RECIST 1.1 by BICR; OS)
Assay type: in vivo, human
Conditions: for ORR point estimates for all subgroups: ORR subgroup analysis
Description: This is a single-arm, open-label, multicenter trial designed to assess the efficacy and safety of enfortumab vedotin as a single agent in locally advanced or metastatic urothelial cancer patients who have previously received systemic therapy with a CPI. For the purpose of this study a CPI is defined as a programmed cell death protein 1 (PD-1) inhibitor or programmed death-ligand 1 (PD-L1) inhibitor (including, but not limited to: atezolizumab, pembrolizumab, durvalumab, avelumab, and nivolumab). Patients must either have received prior treatment with platinum-containing chemotherapy (Cohort 1) or received no prior treatment with platinum-containing or other chemotherapy and are ineligible for treatment with cisplatin at time of enrollment (Cohort 2).
Enfortumab vedotin at a dose of 1.25 mg/kg will be administered as an intravenous (IV) infusion over approximately 30 minutes on Days 1, 8, and 15 of each 28-day cycle. Patients will continue to receive study treatment until disease progression, unacceptable toxicity, investigator decision, consent withdrawal, start of a subsequent anticancer therapy, pregnancy, or study termination by the sponsor. After discontinuation of study treatment, patients will be followed every 8 weeks (1 week) for response assessments, ECOG performance status, and physical exams. After 1 year of on study, the frequency of follow-up exams including response assessments will be reduced to every 12 weeks (+1 week). Patients that have progressed or begun subsequent anticancer therapy will be contacted every 8 weeks (1 week) up to 1 year on study, and every 12 weeks (+1 week) thereafter to obtain information on subsequent anticancer therapy, and survival status until death, study closure, or withdrawal of consent, whichever occurs first. The study will be closed 5 years after enrollment of the last patient, or when no patients remain in long-term follow-up, whichever occurs first. Additionally, the sponsor may terminate the study at any time.
Measures of anticancer activity will be assessed by computed tomography (CT) scans with contrast approximately every 8 weeks (±1 week). After 1 year on study, response assessments will be reduced to every 12 weeks (±1 week). The schedule of response assessments should not be adjusted for dose delays/interruptions or other reasons for changes in the timing of a patient's study activities; timepoints for response assessments should be calculated from Cycle 1 Day 1 during treatment. For patients who cannot receive CT scans with contrast, other protocol-specified imaging methods may be used. Patients must be evaluated using the same imaging method throughout the study for efficacy assessments. CT scans with contrast at the minimum will include the chest, abdomen, and pelvis. Other regions should be scanned if the patient has known or suspected disease in that region. Responses (complete response (CR) or partial response (PR)) will be confirmed with repeat scans 4 weeks (+1 week window) after first documentation of response. The determination of antitumor activity will be based on confirmed objective response assessments as defined by RECIST Version 1.1.
Response and progression will be assessed by an independent review facility (IRF). The investigator will make treatment decisions based on site assessments of scans by RECIST.
The primary endpoint of this study is the confirmed ORR per IRF. The ORR is defined as the proportion of patients with confirmed CR or PR according to RECIST Version 1.1. The ORR per IRF and its exact 2-sided 95% confidence interval (CI) using the Clopper-Pearson method (Clopper et al., Biometrika (1934); 26(4): 404-413) will be calculated.
The primary efficacy endpoint of this study is ORR (confirmed CR or PR per Response Evaluation Criteria in Solid Tumors (RECIST) Version 1.1) as determined by blinded independent central review (BICR) by an independent review facility (IRF). […]

[1] = Cohort 2 (N = 89), BICR, additional 3 months follow-up
[2] = Cohort 2 (N = 89), BICR, primary analysis
[3] = Cohort 2, BICR, additional 3 months follow-up
[4] = Cohort 2, BICR, primary analysis
[5] = Cohort 2, Kaplan-Meier, additional 3 months follow-up
[6] = Cohort 2, additional 3 months follow-up

enfortumab vedotin: Nectin-4 directed ADC: fully human anti-nectin-4 IgG1 kappa antibody (AGS-22C3) conjugated to MMAE via protease-cleavable maleimidocaproyl valine-citrulline linker
Best Overall Response: Complete Response (CR) [1]: 20 (22.5) n (%) | Best Overall Response: Not Evaluable (NE) [1]: 8 (9.0) n (%) | Best Overall Response: Partial Response (PR) [1]: 25 (28.1) n (%) | Best Overall Response: Progressive Disease (PD) [1]: 19 (10.1) n (%) | ORR (CR or PR) [1]: 45 (50.6) n (%) | Best Overall Response: Complete Response (CR) [2]: 18 (20.2) n (%) | Best Overall Response: Not Evaluable (NE) [2]: 8 (9.0) n (%) | Best Overall Response: Partial Response (PR) [2]: 28 (31.5) n (%) | Best Overall Response: Progressive Disease (PD) [2]: 8 (9.0) n (%) | ORR (CR or PR) [2]: 46 (51.7) n (%) | Number of responders (confirmed CR or PR) (Cohort 2 (N = 89), additional 3 months follow-up): 45 | 95% CI of confirmed ORR [3]: 39.8-61.3% | CR among treated patients [3]: 22% | confirmed ORR [3]: 51% | CR (complete response rate) [4]: 20.2% | ORR [4]: 51.7% | median DOR [4]: 10.9 months | median PFS [4]: 5.8 months | participants with reduction in tumor measurements [4]: 88% | responders with ongoing response (18 out of 46) [4]: 39% | % Responders without PD or death (95% CI) [5]: 35.8 (14.49, 57.91) % | % Responders without PD or death at 6 months (95% CI) [5]: 67.9 (51.11, 79,95) % | % Responders without PD or death at 12 months (95% CI) [5]: 53.7 (35.51, 68.85) % | Duration of response, 25th percentile [5]: 5.8, − months | Duration of response, Median (95% CI) [5]: 13.8 (6.41, −) months | ORR point estimates for all subgroups [6]: more than 40% | ORR point estimates for all subgroups (Cohort 2, primary analysis): more than 40% | 95% CI of median PFS [6]: 5.0(8.3) months | median DOR [6]: 13.8 months | median PFS [6]: 6.7 months | median OS (Cohort 2, additional 3 months follow-up, median follow-up 16.0 months): 16.1 months | ORR (Cohort 2, patients who did not respond to prior PD-1/PD-L1 inhibitors, additional 3 months follow-up): 46% | ORR (Cohort 2, patients with liver metastasis, additional 3 months follow-up): 43% | ORR (Cohort 2, patients with primary tumor sites in the upper tract, additional 3 months follow-up): 58% | median OS (Cohort 2, primary analysis, median follow-up 13.4 months): 14.7 months
